Laboratory results taken from patent US8895077B2, “Methods for preventing or treating infectious diseases caused by extracellular microorganisms, including antimicrobial-resistant strains thereof, using gallium compounds” (priority 2007, dated 2014).

Experiments:
[1] = tested on: Methicillin-resistant Staphylococcus aureus (MRSA); assay: MIC/MBC susceptibility test, macrodilution broth method; assay type: cell-based; settings: MRSA ATCC 33592; Tryptic soy agar with 5% sheep blood; 36° C. for 48 hours; 5.2 × 10^5 CFU/ml
Experimental: (§1) Susceptibility of various microorganisms to gallium was tested by determining the minimum inhibitory concentration (MIC) and minimum bactericidal concentration (MBC) for each microorganism using gallium nitrate. In general, MIC is determined by (i) mixing a series of broths, each containing a standard number of microorganisms, with serially diluted solutions of the gallium compound; and (ii) determining the MIC, after incubation, that is the lowest concentration of the gallium compound that inhibits the growth of the microorganism. The lower the MIC, the more susceptible the organism is. The MBC is determined by subculturing an aliquot of each sample from the MIC test on an appropriate agar plate containing no gallium compound.
(§2) Specifically, in the present experiment, two grams of gallium nitrate powder were dissolved in 10 ml of filter-sterilized deionized water and the resulting 20% (w/v) (i.e., 200 mg/ml) solution was once again filter-sterilized. Two-fold serial dilutions were prepared in sterile deionized water down to 0.156% (i.e., 1.56 mg/ml) for the tests for most of the organisms, except for the test for Candida albicans, in which 10%, 1%, 0.5%, 0.1%, 0.05%, 0.01%, 0.005% and 0.001% of gallium nitrate solutions were prepared.
(§3) All organisms were obtained from the American Type Culture Collection (ATCC), Manassas, Va. Each microorganism was picked from the seed culture (see Table 1) and inoculated in an appropriate type of broth to obtain a 0.5 McFarland turbidity standard. The standard suspension of the microorganism was then diluted to 1:100 with the broth and used for the tests.
(§4) Each microorganism was tested in duplicate by either a microdilution broth method in 96-well plates (i.e., 0.1 ml of the gallium nitrate solution mixed with 0.1 ml of the microorganism suspension) or a macrodilution broth method in test tubes (i.e., 1 ml of the gallium nitrate solution mixed with 1 ml of the microorganism suspension) as follows: […]
(§5) The growth of the microorganisms were determined by visual observation of turbidity in the samples. […]

[2] = tested on: Salmonella typhi; assay: as above; assay type: cell-based; settings: Salmonella typhi ATCC 6539; Tryptic soy agar with 5% sheep blood; 36° C. for 48 hours; 8.3 × 10^5 CFU/ml
Experimental: as §1, §2, §3, §4, §5

[3] = tested on: Vancomycin-resistant Enterococcus faecalis (VRE); assay: as above; assay type: cell-based; settings: VRE ATCC 51575; Tryptic soy agar with 5% sheep blood; 36° C. for 48 hours; 3.9 × 10^5 CFU/ml
Experimental: as §1, §2, §3, §4, §5

[4] = tested on: Campylobacter jejuni; assay: MIC/MBC susceptibility test, microdilution broth method; assay type: cell-based; settings: Campylobacter jejuni ATCC 29428; Tryptic soy agar with 5% sheep blood; 36° C. for 48 hours; 4.9 × 10^5 CFU/ml
Experimental: as §1, §2, §3
(§6) Each microorganism was tested in duplicate by either a microdilution broth method in 96-well plates (i.e., 0.1 ml of the gallium nitrate solution mixed with 0.1 ml of the microorganism suspension) or a macrodilution broth method in test tubes (i.e., 1 ml of the gallium nitrate solution mixed with 1 ml of the microorganism suspension) as follows:
(§7) Microdilution broth method: Candida albicans; Escherichia coli O157:H7; and Campylobacter jejuni.
(§8) The growth of the microorganisms were determined by visual observation of turbidity in the samples.
(§9) To determine MBC, 10 μl of each sample used in MIC were inoculated onto an appropriate agar plate and incubated.

[5] = tested on: Candida albicans; assay: as above; assay type: cell-based; settings: Candida albicans ATCC 10231, 27° C. for 48 hours, 9.75 × 10^5 CFU/ml
Experimental: as §1, §2, §3, §6, §7, §8, §9

[6] = tested on: Escherichia coli O157:H7; assay: as above; assay type: cell-based; settings: E. coli O157:H7 ATCC 35150; Tryptic soy agar with 5% sheep blood; 36° C. for 48 hours; 1.38 × 10^6 CFU/ml
Experimental: as §1, §2, §3, §6, §7, §8, §9

[7] = healthy adults; intravenous infusion for at least 7 days; from U.S. Pat. No. 6,203,822; cited from earlier work
[8] = tested on: Vancomycin-resistant Enterococcus faecalis (VRE); assay: CLSI Vancomycin disk-diffusion test; assay type: cell-based; settings: VRE ATCC 51575; CLSI Vancomycin resistant range: ≦14 mm

Molecule `O=[N+]([O-])[O-].O=[N+]([O-])[O-].O=[N+]([O-])[O-].[Ga+3]` [gallium nitrate] has an MBC [1] of 12500 µg/mL, an MBC [2] of 6250 µg/mL and an MBC [3] of 25000 µg/mL. The MBC [4] was <780 µg/mL, the MIC ([5]; Sabouraud Dextrose broth) was 10000 µg/mL and the MBC ([5]; Sabouraud dextrose agar) was >100000 µg/mL. The MBC [6] was 6250 µg/mL and the tolerated dose [7] was “at least 200 mg/m^2/day”.

For `CN[C@H](CC(C)C)C(=O)N[C@H]1C(=O)N[C@@H](CC(N)=O)C(=O)N[C@H]2C(=O)N[C@H]3C(=O)N[C@H](C(=O)N[C@H](C(=O)O)c4cc(O)cc(O)c4-c4cc3ccc4O)[C@H](O)c3ccc(c(Cl)c3)Oc3cc2cc(c3O[C@@H]2O[C@H](CO)[C@@H](O)[C@H](O)[C@H]2O[C@H]2C[C@](C)(N)[C@H](O)[C@H](C)O2)Oc2ccc(cc2Cl)[C@H]1O` [Vancomycin], the zone of inhibition [8] was “^bAntibiotics resistance of the organism was confirmed by CLSI Vancomycin disk-diffusion test. The zone of inhibition was 10 mm (CLSI Vancomycin resistant range: ≦14 mm)”.
